One assay deals with ZR-75-1. Kind of assay: CellTiter-Glo luminescent cell viability assay (CTG) with ZR-75-1 cells. Type of assay: functional, cell-based. Particulars: Homo sapiens. (ATP-based viability assays read luminescence as a measure of living cells.)
A further assay relates to AN3-CA. As to the kind of experiment: CellTiter-Glo luminescent cell viability assay (CTG) with AN3-CA cells. Format: functional, cell-based. The conditions noted are these: Homo sapiens.
Assay [1] deals with RAC-alpha serine/threonine-protein kinase (Homo sapiens, UniProt P31749). Kind of assay: Homogeneous Time Resolved Fluorescence (HTRF) assay (AKT1).
The nature of assay [2]: NanoBRET assay (AKT2). Particulars: Homo sapiens; call rule not given here. Background: Bioluminescence resonance energy transfer reports proximity on the nanometre scale.
A short description of assay [3]: NanoBRET assay (AKT1). The conditions noted are these: Homo sapiens.
The nature of assay [4]: NanoBRET assay (AKT3). Particulars: Homo sapiens.

SMILES strings stand for the structures.

Chain of RAC-alpha serine/threonine-protein kinase (P31749 whole entry): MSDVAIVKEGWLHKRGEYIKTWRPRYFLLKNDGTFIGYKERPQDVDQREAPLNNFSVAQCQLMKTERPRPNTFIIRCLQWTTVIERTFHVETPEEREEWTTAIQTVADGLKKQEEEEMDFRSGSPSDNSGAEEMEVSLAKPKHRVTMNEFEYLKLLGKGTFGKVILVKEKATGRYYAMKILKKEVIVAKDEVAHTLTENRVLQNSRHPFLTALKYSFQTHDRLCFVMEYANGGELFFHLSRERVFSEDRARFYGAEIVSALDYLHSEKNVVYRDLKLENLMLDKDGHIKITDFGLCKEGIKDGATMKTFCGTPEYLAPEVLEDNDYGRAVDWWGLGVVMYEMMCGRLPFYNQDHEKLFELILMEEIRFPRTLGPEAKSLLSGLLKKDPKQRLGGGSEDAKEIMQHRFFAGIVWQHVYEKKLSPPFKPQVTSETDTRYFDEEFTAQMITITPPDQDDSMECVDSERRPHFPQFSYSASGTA

What is called EC50 is the concentration at which the effect is half-maximal. As usually defined, the IC50 is the concentration that inhibits the measured activity by half. Lower therefore signals greater potency in that assay. As to `C=CC(=O)Nc1ccc2[nH]c(=O)n(C3CCN(Cc4ccc(-c5ccc6c(c5)NC(=O)CO6)cc4)CC3)c2c1` [RL2578], the EC50 is listed as 4.2 µM (not active) in the assay with ZR-75-1; 18 µM (not active) in the assay on AN3-CA; 4.8 µM (not active) in assay [2]; 3.5 µM (not active) in assay [3]; 9.3 µM (not active) in assay [4]. Moreover, the IC50 in assay [1] was 9.2 µM (not active); in assay [2], 8.3 µM (not active); in assay [3], 1.9 µM (not active); in assay [4], 18 µM (not active).

Values taken from ChEMBL document CHEMBL4800730 (2021).
